Experimental data reported in patent US7851469B2, “Isoxazole-imidazole derivatives” (Hoffmann-La Roche Inc., priority 2007, dated 2010).

biological target: T1, GABA A receptor α5β3γ2 (hα5) (Homo sapiens, UniProt P18507+P31644); assay: [3H]flumazenil competition binding assay, human GABA A α5 receptor; settings: displacement of [3H]flumazenil (0.5 nM) from HEK293 cell membranes expressing α5β3γ2; means of two determinations
T1 construct: expressed in transfected cells; host or cells: HEK293 (transiently transfected; membranes)
Procedure: Membrane Preparation and Binding Assay
The affinity of compounds at GABA A receptor subtypes was measured by competition for [3H]flumazenil (85 Ci/mmol; Roche) binding to HEK293 cells expressing rat (stably transfected) or human (transiently transfected) receptors of composition α1β3γ2, α2β3γ2, α3β3γ2 and α5β3γ2.
Cell pellets were suspended in Krebs-tris buffer (4.8 mM KCl, 1.2 mM CaCl2, 1.2 mM MgCl2, 120 mM NaCl, 15 mM Tris; pH 7.5; binding assay buffer), homogenized by polytron for ca. 20 sec on ice and centrifuged for 60 min at 4° C. (50000 g; Sorvall, rotor: SM24=20000 rpm). The cell pellets were resuspended in Krebs-tris buffer and homogenized by polytron for ca. 15 sec on ice. Protein was measured (Bradford method, Bio-Rad) and aliquots of 1 mL were prepared and stored at −80° C.
Radioligand binding assays were carried out in a volume of […] (96-well plates) which contained […] of cell membranes, [3H]flumazenil at a concentration of 1 nM for α1, α2, α3 subunits and 0.5 nM for α5 subunits and the test compound in the range of […]. Nonspecific binding was defined by 10^−5 M diazepam and typically represented less than 5% of the total binding. Assays were incubated to equilibrium for 1 hour at 4° C. and harvested onto GF/C uni-filters (Packard) by filtration using a Packard harvester and washing with ice-cold wash buffer (50 mM Tris; pH 7.5). After drying, filter-retained radioactivity was detected by liquid scintillation counting. Ki values were calculated using Excel-Fit (Microsoft) and are the means of two determinations.

Row | Ki | SMILES
1 | 53.2 nM | FC(F)(F)c1onc(-c2ccccc2)c1-c1cn(-c2ccccc2)cn1 [Example 1, 3-Phenyl-4-(1-phenyl-1H-imidazol-4-yl)-5-trifluoromethyl-isoxazole]
2 | 12.5 nM | CC(=O)c1ccc(-n2cnc(-c3c(-c4ccccc4)noc3C(F)(F)F)c2)cc1 [Example 3, 1-{4-[4-(3-Phenyl-5-trifluoromethyl-isoxazol-4-yl)-imidazol-1-yl]-phenyl}-ethanone]
3 | 39.7 nM | FC(F)(F)c1ccc(-n2cnc(-c3c(-c4ccccc4)noc3C(F)(F)F)c2)cc1 [Example 4, 3-Phenyl-5-trifluoromethyl-4-[1-(4-trifluoromethyl-phenyl)-1H-imidazol-4-yl]-isoxazole]
4 | 41.2 nM | N#Cc1ccc(-n2cnc(-c3c(-c4ccccc4)noc3C(F)(F)F)c2)cc1 [Example 5, 4-[4-(3-Phenyl-5-trifluoromethyl-isoxazol-4-yl)-imidazol-1-yl]-benzonitrile]
5 | 19.7 nM | O=[N+]([O-])c1ccc(-n2cnc(-c3c(-c4ccccc4)noc3C(F)(F)F)c2)cc1 [Example 7, 4-[1-(4-Nitro-phenyl)-1H-imidazol-4-yl]-3-phenyl-5-trifluoromethyl-isoxazole]
6 | 84.2 nM | Cc1ccc(-n2cnc(-c3c(-c4ccccc4)noc3C(F)(F)F)c2)cc1 [Example 8, 3-Phenyl-4-(1-p-tolyl-1H-imidazol-4-yl)-5-trifluoromethyl-isoxazole]
7 | 46.1 nM | COc1ccc(-n2cnc(-c3c(-c4ccccc4)noc3C(F)(F)F)c2)cc1 [Example 9, 4-[1-(4-Methoxy-phenyl)-1H-imidazol-4-yl]-3-phenyl-5-trifluoromethyl-isoxazole]
8 | 23.6 nM | O=C(NCC1CC1)c1ccc(-n2cnc(-c3c(-c4ccccc4)noc3C(F)(F)F)c2)cc1 [Example 10, N-Cyclopropylmethyl-4-[4-(3-phenyl-5-trifluoromethyl-isoxazol-4-yl)-imidazol-1-yl]-benzamide]
9 | 17.6 nM | O=C(NCC(F)(F)F)c1ccc(-n2cnc(-c3c(-c4ccccc4)noc3C(F)(F)F)c2)cc1 [Example 11, 4-[4-(3-Phenyl-5-trifluoromethyl-isoxazol-4-yl)-imidazol-1-yl]-N-(2,2,2-trifluoro-ethyl)-benzamide]
10 | 11.7 nM | O=C(NC1CC1)c1ccc(-n2cnc(-c3c(-c4ccccc4)noc3C(F)(F)F)c2)cc1 [Example 12, N-Cyclopropyl-4-[4-(3-phenyl-5-trifluoromethyl-isoxazol-4-yl)-imidazol-1-yl]-benzamide]
11 | 41.2 nM | O=C(NC1CCOCC1)c1ccc(-n2cnc(-c3c(-c4ccccc4)noc3C(F)(F)F)c2)cc1 [Example 13, 4-[4-(3-Phenyl-5-trifluoromethyl-isoxazol-4-yl)-imidazol-1-yl]-N-(tetrahydro-pyran-4-yl)-benzamide]
12 | 31.5 nM | COC(=O)c1ccc(-n2cnc(-c3c(-c4ccccc4)noc3C(F)(F)F)c2)nc1 [Example 17, 6-[4-(3-Phenyl-5-trifluoromethyl-isoxazol-4-yl)-imidazol-1-yl]-nicotinic acid methyl ester]
13 | 91.1 nM | O=C(c1ccc(-n2cnc(-c3c(-c4ccccc4)noc3C(F)(F)F)c2)nc1)N1CCSCC1 [Example 23, {6-[4-(3-Phenyl-5-trifluoromethyl-isoxazol-4-yl)-imidazol-1-yl]-pyridin-3-yl}-thiomorpholin-4-yl-methanone]
14 | 22.1 nM | COC(=O)c1ccc(-n2cnc(-c3c(-c4ccc(F)cc4)noc3C(F)(F)F)c2)cc1 [Example 27, 4-{4-[3-(4-Fluoro-phenyl)-5-trifluoromethyl-isoxazol-4-yl]-imidazol-1-yl}-benzoic acid methyl ester]
15 | 76.7 nM | O=C(O)c1ccc(-n2cnc(-c3c(-c4ccc(F)cc4)noc3C(F)(F)F)c2)cc1 [Example 28, 4-{4-[3-(4-Fluoro-phenyl)-5-trifluoromethyl-isoxazol-4-yl]-imidazol-1-yl}-benzoic acid]
16 | 28.4 nM | CC(C)(O)c1ccc(-n2cnc(-c3c(-c4ccc(F)cc4)noc3C(F)(F)F)c2)cc1 [Example 29, 2-(4-{4-[3-(4-Fluoro-phenyl)-5-trifluoromethyl-isoxazol-4-yl]-imidazol-1-yl}-phenyl)-propan-2-ol]
17 | 17.1 nM | NC(=O)c1ccc(-n2cnc(-c3c(-c4ccc(F)cc4)noc3C(F)(F)F)c2)cc1 [Example 31, 4-{4-[3-(4-Fluoro-phenyl)-5-trifluoromethyl-isoxazol-4-yl]-imidazol-1-yl}-benzamide]
18 | 87.4 nM | O=C(c1ccc(-n2cnc(-c3c(-c4ccc(F)cc4)noc3C(F)(F)F)c2)cc1)N1CCS(=O)(=O)CC1 [Example 35, (1,1-Dioxo-1λ6-thiomorpholin-4-yl)-(4-{4-[3-(4-fluoro-phenyl)-5-trifluoromethyl-isoxazol-4-yl]-imidazol-1-yl}-phenyl)-methanone]
19 | 17.2 nM | CC(=O)c1ccc(-n2cnc(-c3c(-c4ccc(F)cc4)noc3C(F)(F)F)c2)nc1 [Example 36, 1-(6-{4-[3-(4-Fluoro-phenyl)-5-trifluoromethyl-isoxazol-4-yl]-imidazol-1-yl}-pyridin-3-yl)-ethanone]
20 | 32.3 nM | N#Cc1ccc(-n2cnc(-c3c(-c4ccc(F)cc4)noc3C(F)(F)F)c2)nc1 [Example 37, 6-{4-[3-(4-Fluoro-phenyl)-5-trifluoromethyl-isoxazol-4-yl]-imidazol-1-yl}-nicotinonitrile]
21 | 4.9 nM | O=C(NCC(F)(F)F)c1ccc(-n2cnc(-c3c(-c4ccc(F)cc4)noc3C(F)(F)F)c2)nc1 [Example 39, 6-{4-[3-(4-Fluoro-phenyl)-5-trifluoromethyl-isoxazol-4-yl]-imidazol-1-yl}-N-(2,2,2-trifluoro-ethyl)-nicotinamide]
22 | 4.1 nM | O=C(NC1CC1)c1ccc(-n2cnc(-c3c(-c4ccc(F)cc4)noc3C(F)(F)F)c2)nc1 [Example 40, N-Cyclopropyl-6-{4-[3-(4-fluoro-phenyl)-5-trifluoromethyl-isoxazol-4-yl]-imidazol-1-yl}-nicotinamide]
23 | 38.2 nM | CC(C)(O)c1ccc(-n2cnc(-c3c(-c4ccc(F)cc4)noc3C(F)(F)F)c2)nc1 [Example 43, 2-(6-{4-[3-(4-Fluoro-phenyl)-5-trifluoromethyl-isoxazol-4-yl]-imidazol-1-yl}-pyridin-3-yl)-propan-2-ol]
24 | 58.6 nM | O=[N+]([O-])c1ccc(-n2cnc(-c3c(-c4ccc(Cl)cc4)noc3C(F)(F)F)c2)cc1 [Example 47, 3-(4-Chloro-phenyl)-4-[1-(4-nitro-phenyl)-1H-imidazol-4-yl]-5-trifluoromethyl-isoxazole]
25 | 8.5 nM | O=C(NC1CCOCC1)c1ccc(-n2cnc(-c3c(-c4ccc(Cl)cc4)noc3C(F)(F)F)c2)nc1 [Example 51, 6-{4-[3-(4-Chloro-phenyl)-5-trifluoromethyl-isoxazol-4-yl]-imidazol-1-yl}-N-(tetrahydro-pyran-4-yl)-nicotinamide]
26 | 73 nM | FC(F)(F)c1onc(-c2ccccc2)c1-c1cn(-c2ncccn2)cn1 [Example 54, 2-[4-(3-Phenyl-5-trifluoromethyl-isoxazol-4-yl)-imidazol-1-yl]-pyrimidine]
27 | 14.1 nM | O=C(NC1CC1)c1cnc(-n2cnc(-c3c(-c4ccccc4)noc3C(F)(F)F)c2)cn1 [Example 55, 5-[4-(3-Phenyl-5-trifluoromethyl-isoxazol-4-yl)-imidazol-1-yl]-pyrazine-2-carboxylic acid cyclopropylamide]
